Literature values in patent US20090030403A1, “Methods and Systems for Attenuating the Tolerance Response to a Drug” (priority 2007, published 2009).

What was measured:
[1] = tested on: rat hippocampal slices; conditions: 10-30 μg/mL
[2] = tested on: dopaminergic and serotonergic neurotransmission; conditions: in vivo microdialysis
[3] = tested on: cultured mouse spinal cord neurons; conditions: 10-30 μg/mL
[4] = tested on: T-type Ca^2+ currents; conditions: in vitro
[5] = tested on: sodium channels; conditions: in vitro
[6] = tested on: carbonic anhydrase
[7] = tested on: GABA/benzodiazepine receptor ionophore complex; conditions: in vitro
[8] = tested on: partial seizures; conditions: adjunctive therapy, partial seizures in adults

**Q.** For `NS(=O)(=O)Cc1noc2ccccc12` [Zonisamide, 1,2-benzisoxazole-3-methanesulfonamide], which “Neuronal or glial uptake of [3H]-GABA” value [1] is on record?
**A.** without affecting

**Q.** And the Half life (in red blood cells)?
**A.** 105 h

**Q.** What about the Excretion (system removing the drug or its metabolites) of the same molecule?
**A.** Renal

**Q.** And the Metabolism (system responsible for the drug's metabolism)?
**A.** Hepatic

**Q.** What about the “Dopaminergic and serotonergic neurotransmission” value [2] of the same molecule?
**A.** facilitates both dopaminergic and serotonergic neurotransmission

**Q.** What about the Synaptically-driven electrical activity [3] of the same molecule?
**A.** suppresses synaptically-driven electrical activity

**Q.** What about the “Postsynaptic GABA or glutamate responses” value ([3]; cultured mouse spinal cord neurons) of the same molecule?
**A.** without affecting

**Q.** And the “Effect on T-type Ca2+ currents” value [4]?
**A.** reduces voltage-dependent, transient inward currents

**Q.** What about the “Effect on sodium channels” value [5] of the same molecule?
**A.** blocks sodium channels

**Q.** What about the “Carbonic anhydrase inhibiting activity” value [6] of the same molecule?
**A.** weak

**Q.** And the “Binding to GABA/benzodiazepine receptor ionophore complex” value [7]?
**A.** binds to the GABA/benzodiazepine receptor ionophore complex in an allosteric fashion

**Q.** And the Chloride flux [7]?
**A.** does not produce changes in chloride flux

**Q.** What about the “Effective doses in controlled trials” value [8] of the same molecule?
**A.** 100 to 600 mg/day
